Source: US7932281B2, “Amine-based compound and use thereof” (Kureha Corporation, priority 2004, dated 2011)

Key:
[1] = test system: HIV-1IIIB infected MT-4 cells; experiment: Anti-HIV activity, HIV-1IIIB infected MT-4 cells, MTT method (Test Example 1); format: cell-based; details: Human immunodeficiency virus 1, MT4, 120 h, concentration required for inhibition of cell disorder due to HIV infection by 50%, MOI 0.01, 5 days
Procedure: Immediately after infection, HIV-1IIIB infected MT-4 cells (3.0×10^4/well, MOI (Multiplicity of infection): 0.01) were added to a 96-well microtiter plate together with the test compounds having different concentrations. The cells were cultured in a carbon dioxide incubator at 37° C. for 5 days, and the number of living cells was measured in accordance with the MTT (tetrazolium) method ([…], et al., J. of Virol. Method, 20, 309-321 […]). The antiviral activity is represented by the concentration required for inhibition of cell disorder due to HIV infection by 50% (EC50: 50% Effective Concentration) (μM), and the results are shown in Table 2.

SD mice = experiment: Acute toxicity, single transvenous administration (Test Example 3); format: in vivo; details: 6-week-old male SD mice, 2.5 mg/kg transvenously once in physiological saline
Procedure: The aforementioned compound was examined for acute toxicity. Specifically, 6-week-old SD mice (male) were divided into several groups (2 to 3 mice in each group). Subsequently, each of the compounds of Examples was dissolved in a physiological saline solution, and the solution was transvenously administered to the mice (dose: 2.5 mg/kg) once. Then, the number of dead mice was counted.

[2] = Conversion of Compound No. 91 to Compound No. 84 in human serum, LCMS (Test Example 5); format: in vitro ADME; details: for Proportion found by LCMS, Human, 0 minutes / Proportion found by LCMS, Human, 30 minutes: Compound No. 91 incubated in human serum/saline
Procedure: (§1) 147 μl of human serum pool (manufactured by Cosmo Bio Co. Ltd.) or pool serum obtained by centrifugation (3,500 rpm for 10 minutes) of whole blood collected from a Crj:CD (SD) IGS male rat (manufactured by Charles River Laboratories Japan, INC.) was dispensed in a tube. 147 μl of a physiological saline solution (manufactured by Hikari Pharmaceutical Co., Ltd.) was dispensed thereto. Subsequently, the whole was preincubated for 3 minutes. The solution was added and mixed with a solution (3 μl) obtained by: diluting a 25 mmol/l DMSO solution containing the Compound No. 91 with a physiological saline solution to adjust to 500 μmol/l. The reaction was allowed to start in a thermomixer. After 30 minutes later, the solution was added with 0.1% formic acid/methanol solution (600 μl) and the whole was mixed. The solution was subjected to centrifugation (15,000 rpm for 5 minutes) and the supernatant was subjected to LCMS (liquid chromatograph mass spectrometry) measurement.

[3] = Conversion of Compound No. 91 to Compound No. 84 in rat serum, LCMS (Test Example 5); format: in vitro ADME; details: for Proportion found by LCMS, Rat, 0 minutes / Proportion found by LCMS, Rat, 30 minutes: Compound No. 91 incubated in rat serum/saline
Procedure: as §1

CXCR4 = target: T1, CXCR4 (Homo sapiens, UniProt P61073); experiment: Inhibition of 125I-SDF-1α binding to receptors CXCR4 on MT-4 cells (Test Example 2); details: binding-inhibition % at 0.01 μM, 2 hours under ice-cooling, read-out: Inhibition rate (%)
T1 construct: endogenous in cells; host or cells: MT-4 cells
Procedure: MT-4 cells (5×10^6/0.2 ml/well) were cultured on a 24-well microtiter plate. After the cells were incubated for 24 hours at 37° C. in a carbon dioxide gas incubator, a culture medium was replaced with a buffer solution (0.1% BSA-containing RPMI-1640). Together with a ligand ^125I-SDF-1α (specific activity: 2,200 Ci/mmol; available from Daiichi Pure Chemicals Co., Ltd. (Tokyo)), test materials with various concentrations were subjected to a binding reaction for 2 hours under ice-cooling. […] Then, a rate of inhibition of the binding between radioactive ligands and receptors CXCR4 by a test material was calculated (a binding-inhibition % at 0.01 μM).

T1 sequence (P61073 whole entry): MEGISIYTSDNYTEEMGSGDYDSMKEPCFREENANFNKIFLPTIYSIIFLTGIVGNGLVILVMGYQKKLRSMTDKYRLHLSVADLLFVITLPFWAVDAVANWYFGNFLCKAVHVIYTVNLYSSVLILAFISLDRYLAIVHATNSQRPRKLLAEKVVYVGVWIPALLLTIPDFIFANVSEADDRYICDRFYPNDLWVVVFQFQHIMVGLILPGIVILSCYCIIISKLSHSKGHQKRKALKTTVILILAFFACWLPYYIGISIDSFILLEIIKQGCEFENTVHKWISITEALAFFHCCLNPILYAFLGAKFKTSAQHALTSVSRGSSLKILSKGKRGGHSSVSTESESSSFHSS

## CCCN(CCC)CCCCN(CC(=O)OCC)Cc1ccc(CN(Cc2ncc[nH]2)Cc2nccn2C)cc1 [Compound No. 91]
[1]
  EC50: 3 nM
SD mice
  Dead mice/test mice: 0/3
[2]
  Proportion found by LCMS, Human, 0 minutes: 99%
[2]; 30 minutes
  Proportion found by LCMS, Human, 30 minutes: 20%
[2]; human serum, 30 minutes
  conversion of prodrug in serum: converted to the Compound No. 84
[3]
  Proportion found by LCMS, Rat, 0 minutes: 76%
[3]; 30 minutes
  Proportion found by LCMS, Rat, 30 minutes: 0%
[3]; rat serum, 30 minutes
  conversion of prodrug in serum: converted to the Compound No. 84
CXCR4
  inhibition at 0.01 µM: 87.7%

## CCCN(CCC)CCCCN(CC(=O)O)Cc1ccc(CN(Cc2ncc[nH]2)Cc2nccn2C)cc1 [Compound No. 84, [(4-dipropylamino-butyl)-(4-[[(1H-imidazol-2-ylmethyl)-(1-methyl-1H-imidazol-2-ylmethyl)-amino]-methyl]-benzyl)-amino]-acetic acid]
[1]
  EC50: 3 nM
SD mice
  Dead mice/test mice: 0/3
[2]
  Proportion found by LCMS, Human, 0 minutes: 1%
[2]; 30 minutes
  Proportion found by LCMS, Human, 30 minutes: 80%
[3]
  Proportion found by LCMS, Rat, 0 minutes: 24%
[3]; 30 minutes
  Proportion found by LCMS, Rat, 30 minutes: 100%
CXCR4
  inhibition at 0.01 µM: 88.3%
